{
  "source": "the NIST ThermoML archive (doi:10.1016/j.jct.2011.07.011)",
  "details": "Crystal; Heating/Cooling curves",
  "note": "Several values for one entry are separate records, joined by “and”; a condition that tells them apart may be missing. Equal entries are not always repeated. Numbers after ± are expanded uncertainties.",
  "data": [
    {"smiles": "[Ne]", "note": "[neon]", "values": [
      {"measurement": "Triple point temperature", "result": "24.54 ± 0.077 K and 24.69 ± 0.077 K"}
    ]}
  ]
}
